In brackets after ≈: the same amount, converted by molar mass.
What was measured:
[1] = system: Chaectomium globosum ATCC44699; assay: Fungus panel screening, CLSI broth microdilution; assay type: cell-based
Method: Fungus panel screening was conducted by Eurofins Panlabs Inc. The MIC and MIC50 values of the test articles were determined following the guidelines of the Clinical and Laboratory Standards Institute, broth microdilution methods for yeast (CLSI M27-A2), (CLSI, 2002) and for filamentous fungi (CLSI M38-A), (CLSI, 2008).

[2] = system: aspergillus fumigatus (ATCC 13073 [strain: NIH 5233]); assay: In vivo anti-fungal activity, prophylactic and therapeutic treatment of infected immunocompromised neutropenic mice; set-up: species or system A/J mice; details: for Cell numbers in BALF, Macrophage / Cell numbers in BALF, Neutrophil / TNFα conc in serum: mean ± SEM
[3] = system: aspergillus fumigatus (ATCC 13073 [strain: NIH 5233]); assay: Survival of severely immunosuppressed neutropenic infected mice, monotherapy and combination; assay type: in vivo, A/J mice; details: Example 1 0.4 mg/mL (in); Posaconazole 1 mg/kg (po); once daily days 1-6
Method: On day 0, animals were infected intranasally with 35 µL of the spore suspension (1.67 × 10^8 spores/mL in physiological saline) of aspergillus fumigatus (ATCC 13073 [strain: NIH 5233]). Compound Example (I), prepared as a suspension in isotonic saline (0.4 mg/mL), was dosed once daily by an intra-nasal injection (35 µL/mouse) on days 1-6 after infection. Posaconazole (1 mg/kg) was given orally once daily on days 1-6 after infection. Body weight and survival were monitored daily up to day 7.

[4] = system: Aspergillus fumigatus (NCPF2010) invasion; assay: Aspergillus fumigatus infection of human alveoli bilayers (transwells), GM in lower chamber; assay type: cell-based; details: Posaconazole 0.01 µg/mL lower chamber
Method: In vitro models of human alveoli, consisting of a bilayer of human alveolar epithelial cells and endothelial cells, were prepared as previously described (Hope et al., 2007). This system allows administration of a test compound to the upper (“air” space) and/or lower (“systemic” space) compartments. This flexibility has been exploited to explore the effects of combination treatments by dosing compound Example 1 to the upper chamber and posaconazole or other anti-fungal agents to the lower chamber. Primary human pulmonary artery endothelial cells (HPAEC) were harvested and diluted to 10^6 cells/mL in EGM-2 media (Lonza, Basel, Switzerland). Transwells were inverted and the cell suspension (100 µL/well) was applied to the base of each transwell. The inverted transwells were incubated at RT within a flow hood for 2 hr after which they were turned upright. EGM-2 media was added to the lower (700 µL/well) and upper (100 µL/well) compartments and the transwells were incubated for 48 hr (37° C., 5% CO2). The EGM-2 media in the lower compartment was then replaced with fresh EGM-2 media. A549 cells were harvested and diluted to 5×10^5 cells/mL in 10% EBM, then added to the upper compartment (100 µL/well) of all transwells and the plates incubated for 72 hr (37° C., 5% CO2). Conidia of aspergillus fumigatus (the itraconazole sensitive strain NCPF2010 and the itraconazole resistant strain TR34-L98H) were cultured separately in Sabouraud dextrose agar for 3 days. A stock conidia suspension of either strain was prepared from a Sabouraud dextrose agar culture by washing with PBS-tween (10 mL; PBS containing 0.05% Tween-20, 100 U/mL Penicillin and 100 U/mL Streptomycin). The conidia count was assessed using a Neubauer haemocytometer and adjusted to 10^6 conidia/mL with PBS. A working stock of conidia was prepared in EBM (conc of 10^5 conidia/mL) immediately prior to use.
Test and reference compounds (or neat DMSO as the vehicle) were added to the appropriate wells of 24-well plates (3 µL/well containing 600 µL of 2% FBS EBM) for lower compartment treatment and to 96-well plates (1 µL/well containing 200 µL of 2% FBS EBM) for the treatment of the upper compartment, to provide a final DMSO concentration of 0.5%. The media in the upper compartment was aspirated and that containing the appropriate test and reference compounds, or vehicle, were added (100 µL/well). Transwells were then transferred into the 24-well plate containing the test and reference compounds or DMSO vehicle. After incubation for 1 hr (35° C., 5% CO2) the conidia suspension (10 µL/well) was added to the upper compartment of each transwell. Plates were then incubated for 24 hr (35° C., 5% CO2). Supernatants from each compartment (5 µL/compartment) were collected and stored (-20° C.). Media was replaced daily after collection of the supernatants and all wells were treated with test and reference compounds or with DMSO, as described above, for 3 days. Samples continued to be collected until fungal growth was visible by eye in all transwells. The levels of GM in the supernatant in lower compartment were then measured by ELISA (BioRad, CA, USA) as an index of aspergillus fumigatus invasion.

[5] = system: Aspergillus fumigatus (NCPF2010); assay: Resazurin-microtitre assay of planktonic fungus growth; assay type: cell-based; details: Aspergillus fumigatus NCPF2010; resazurin-microtitre assay
Method: This assay was conducted using a modified, published method (Monteiro et al., 2012). Spores of aspergillus fumigatus (NCPF2010, Public Health England, Wiltshire) were cultured in Sabouraud dextrose agar for 3 days. A stock spore suspension was prepared from a Sabouraud dextrose agar culture by washing with PBS-tween (10 mL; PBS containing 0.05% Tween-20, 100 U/mL Penicillin and 100 U/mL Streptomycin). The spore count was assessed using a Neubauer haemocytometer and, using PBS adjusted to 10^6 spores/mL. A working suspension of spores (10^4 spores/mL) was prepared in filter sterilised MOPS RPMI-1640 (50 mL; RPMI-1640 containing 2 mM L-glutamine, 2% glucose and 0.165 M MOPS, buffered to pH 7 with NaOH). Resazurin sodium salt (100 µL of 1% solution; Sigma-Aldrich, Dorset, UK) was added to the spore suspension and mixed well. The spore suspension-resazurin mixture (100 µL/well) was added to 384-well plates (Catalogue number 353962, BD Falcon, Oxford, UK).
Simultaneously, test compounds (0.5 µL DMSO solution) were added to 100 µL of the spore-resazurin mixture in quadruplicate to provide a final DMSO solution of 0.5% using an Integra VIAFLO 96 (Intergra, Zizers, Switzerland). For non-spore control wells, MOPS-RPMI-resazurin solution (100 µL) was added instead of the spore-resazurin mixture. The plate was covered with a Breathe Easier membrane (Catalogue No Z763624, Sigma-Aldrich, Dorset, UK), and incubated (35° C., 5% CO2) until fluorescence in the inoculated wells was double that of the control wells (around 24 hr). The fluorescence of each well (545 nm (excitation) / 590 nm (emission), gain 800, focal height 5.5 mm) was determined using a multi-scanner (Clariostar: BMG, Buckinghamshire, UK). The percentage inhibition for each well was calculated and the MIC50, MIC75 and MIC90 values were calculated from the concentration-response curve generated for each test compound.

[6] = system: Aspergillus fumigatus NCPF7099; assay: Broth microdilution assay (modified EUCAST); assay type: cell-based; details: n = 3, read-out: MIC75 against Aspergillus fumigatus isolate NCPF7099
Procedure, shortened: (§1)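 Spores from 3-day Sabouraud cultures (working suspension 2 × 10^5 spores/mL) were added to an equal volume of RPMI-1640 (2 mM L-glutamine, 0.5% BSA, 2% glucose, 0.165 M MOPS, pH 7) containing compound, in quadruplicate. After 48 hr at 35 °C, OD530 gave percent inhibition. MIC50, MIC75 and MIC90 came from concentration-response curves.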

[7] = system: Aspergillus fumigatus NCPF2010; assay: Broth microdilution assay (modified EUCAST); assay type: cell-based; details: broth microdilution assay, n = 3; read-out: MIC75 against Aspergillus fumigatus isolate NCPF2010
Procedure, shortened: as §1

[8] = system: Aspergillus fumigatus L98H (TR34/L98H); assay: Broth microdilution assay (modified EUCAST); assay type: cell-based; details: broth microdilution assay, n = 3
Procedure, shortened: as §1

[9] = system: Aspergillus fumigatus NCPF7100; assay: Broth microdilution assay (modified EUCAST); assay type: cell-based; details: broth microdilution assay, n = 3
[10] = prophylactic treatment (days 0, 1, 2 and 3), 0.4 mg/mL
[11] = prophylactic treatment, 0.08 mg/mL
[12] = prophylactic treatment, 0.4 mg/mL
[13] = prophylactic treatment, 2 mg/mL
[14] = therapeutic treatment (days 1, 2 and 3), 0.4 mg/mL
[15] = therapeutic treatment, 0.4 mg/mL
[16] = therapeutic treatment, 10 mg/mL
[17] = treatment day 1, Example 1 0.1 µg/mL upper chamber
[18] = treatment day 6, Example 1 0.1 µg/mL upper chamber

Cc1cc(N2CCN(c3ccc(C(=O)Nc4ccc(F)cc4)cc3)CC2)ccc1OC[C@@H]1CO[C@@](Cn2cncn2)(c2ccc(F)cc2F)C1 [Example 1, 4-(4-(4-(((3R,5R)-5-((1H-1,2,4-Triazol-1-yl)Methyl)-5-(2,4-Difluorophenyl)Tetra Hydrofuran-3-yl)Methoxy)-3-Methylphenyl)Piperazin-1-yl)-N-(4-Fluorophenyl) Benzamide]
MIC50 ([1]; 50% inhibition by visual inspection (CLSI)): 0.063 µg/mL (≈ 0.0923 µM)
MIC ([1]; 100% inhibition by visual inspection (CLSI), read-out: MIC100): > 8 µg/mL
% Inhibition versus Infected Controls, GM in BALF [2, 10]: 92%
% Inhibition versus Infected Controls, GM in serum [2, 10]: 95%
% Inhibition versus Infected Controls, Lung Fungal Load [2, 10]: 81%
Macrophage in BALF, % inhibition [2, 11]: 38%
Neutrophil in BALF, % inhibition [2, 11]: 24%
Cell numbers in BALF, Macrophage [2, 11]: 0.40 ± 0.15 ×10^5/mL
Cell numbers in BALF, Neutrophil [2, 11]: 0.37 ± 0.04 ×10^5/mL
Macrophage in BALF, % inhibition [2, 12]: 51%
Neutrophil in BALF, % inhibition [2, 12]: 47%
Cell numbers in BALF, Macrophage [2, 12]: 0.32 ± 0.07 ×10^5/mL
Cell numbers in BALF, Neutrophil [2, 12]: 0.26 ± 0.12 ×10^5/mL
TNFα conc in serum [2, 12]: 7.3 ± 3.5 pg/mL
Macrophage in BALF, % inhibition [2, 13]: 60%
Neutrophil in BALF, % inhibition [2, 13]: 55%
Cell numbers in BALF, Macrophage [2, 13]: 0.26 ± 0.05 ×10^5/mL
Cell numbers in BALF, Neutrophil [2, 13]: 0.22 ± 0.04 ×10^5/mL
TNFα conc in serum [2, 13]: 4.7 ± 0.4 pg/mL
% Inhibition versus Infected Control, GM in BALF [2, 14]: 94%
% Inhibition versus Infected Control, GM in serum [2, 14]: 91%
% Inhibition versus Infected Control, Lung Fungal Load [2, 14]: 97%
Macrophage in BALF, % inhibition [2, 15]: 34%
Neutrophil in BALF, % inhibition [2, 15]: 22%
Cell numbers in BALF, Macrophage [2, 15]: 0.43 ± 0.05 ×10^5/mL
Cell numbers in BALF, Neutrophil [2, 15]: 0.38 ± 0.04 ×10^5/mL
TNFα conc in serum [2, 15]: 6.2 ± 0.5 pg/mL
Macrophage in BALF, % inhibition ([2]; therapeutic treatment, 2 mg/mL): 38%
Neutrophil in BALF, % inhibition ([2]; therapeutic treatment, 2 mg/mL): 31%
Cell numbers in BALF, Macrophage ([2]; therapeutic treatment, 2 mg/mL): 0.40 ± 0.11 ×10^5/mL
Cell numbers in BALF, Neutrophil ([2]; therapeutic treatment, 2 mg/mL): 0.34 ± 0.05 ×10^5/mL
TNFα conc in serum ([2]; therapeutic treatment, 2 mg/mL): 5.5 ± 0.7 pg/mL
Macrophage in BALF, % inhibition [2, 16]: 51%
Neutrophil in BALF, % inhibition [2, 16]: 45%
Cell numbers in BALF, Macrophage [2, 16]: 0.32 ± 0.07 ×10^5/mL
Cell numbers in BALF, Neutrophil [2, 16]: 0.27 ± 0.08 ×10^5/mL
TNFα conc in serum [2, 16]: 4.9 ± 0.6 pg/mL
Median survival [3]: 6 days
No. of survivors on day 7 [3]: 0/6
Survivors on day 7 (%) [3]: 0%
GM Levels in the Lower Chamber, OD value ([4]; treatment day 0, Example 1 0.1 µg/mL upper chamber): 0 OD
GM Levels in the Lower Chamber, % inhibition vs. control [4, 17]: 86%
GM Levels in the Lower Chamber, OD value [4, 17]: 0.091 OD
GM Levels in the Lower Chamber, % inhibition vs. control ([4]; treatment day 2, Example 1 0.1 µg/mL upper chamber): 3.4%
GM Levels in the Lower Chamber, % inhibition vs. control ([4]; treatment day 3, Example 1 0.1 µg/mL upper chamber): 3.7%
GM Levels in the Lower Chamber, % inhibition vs. control ([4]; treatment day 4, Example 1 0.1 µg/mL upper chamber): 4.5%
GM Levels in the Lower Chamber, % inhibition vs. control ([4]; treatment day 5, Example 1 0.1 µg/mL upper chamber): 0.3%
GM Levels in the Lower Chamber, % inhibition vs. control [4, 18]: -0.3%
GM Levels in the Lower Chamber, OD value [4, 18]: 1.18 OD
GM Levels in the Lower Chamber, % inhibition vs. control ([4]; treatment day 7, Example 1 0.1 µg/mL upper chamber): 0.9%
GM Levels in the Lower Chamber, % inhibition vs. control ([4]; treatment day 8, Example 1 0.1 µg/mL upper chamber): 2.8%

C[C@@H]1[C@H](O)[C@@H](C)/C=C/C=C/C=C/C=C/C=C/C=C/C=C/[C@H](O[C@@H]2O[C@H](C)[C@@H](O)[C@H](N)[C@@H]2O)C[C@@H]2O[C@](O)(C[C@@H](O)C[C@@H](O)[C@H](O)CC[C@@H](O)C[C@@H](O)CC(=O)O[C@H]1C)C[C@H](O)[C@H]2C(=O)O [Amphotericin B, reference compound]
MIC50 Planktonic fungal growth [5]: 0.0285 µM (≈ 0.0263 µg/mL)
MIC75 Planktonic fungal growth [5]: 0.0644 µM (≈ 0.0595 µg/mL)
MIC [6]: 0.365 µM (≈ 0.337 µg/mL)
MIC [7]: 0.382 µM (≈ 0.353 µg/mL)
MIC75 against Aspergillus fumigatus isolate L98H [8]: 0.209 µM (≈ 0.193 µg/mL)
MIC75 against Aspergillus fumigatus isolate NCPF7100 [9]: >1.08 µM

From patent US20230295133A1, “PROCESS FOR PREPARING A COMPOUND USEFUL TO TREAT MYCOSES” (PULMOCIDE LIMITED, priority 2014, published 2023)
